Laboratory results published in patent publication US20120122860A1, “SOLID FORMS OF SULFONAMIDES AND AMINO ACIDS” (Plexxikon, Inc., priority 2009, published 2012).

Assays:
[1] = molecular target: B-Raf V600E (Homo sapiens, UniProt P15056, V600E); assay: Kinase activity assay, B-Raf V600E; assay type: biochemical; details: read-out: activity toward kinase B-Raf V600E, IC50
[2] = molecular target: MAP4K4 (Homo sapiens, UniProt O95819); assay: Kinase activity assay, MAP4K4
[3] = molecular target: C-Raf (Homo sapiens, UniProt P04049); assay: Kinase activity assay, C-Raf
[4] = molecular target: T1, A-Raf (Homo sapiens, UniProt P10398); assay: Kinase activity assay, A-Raf
T1 sequence (P10398 1-606): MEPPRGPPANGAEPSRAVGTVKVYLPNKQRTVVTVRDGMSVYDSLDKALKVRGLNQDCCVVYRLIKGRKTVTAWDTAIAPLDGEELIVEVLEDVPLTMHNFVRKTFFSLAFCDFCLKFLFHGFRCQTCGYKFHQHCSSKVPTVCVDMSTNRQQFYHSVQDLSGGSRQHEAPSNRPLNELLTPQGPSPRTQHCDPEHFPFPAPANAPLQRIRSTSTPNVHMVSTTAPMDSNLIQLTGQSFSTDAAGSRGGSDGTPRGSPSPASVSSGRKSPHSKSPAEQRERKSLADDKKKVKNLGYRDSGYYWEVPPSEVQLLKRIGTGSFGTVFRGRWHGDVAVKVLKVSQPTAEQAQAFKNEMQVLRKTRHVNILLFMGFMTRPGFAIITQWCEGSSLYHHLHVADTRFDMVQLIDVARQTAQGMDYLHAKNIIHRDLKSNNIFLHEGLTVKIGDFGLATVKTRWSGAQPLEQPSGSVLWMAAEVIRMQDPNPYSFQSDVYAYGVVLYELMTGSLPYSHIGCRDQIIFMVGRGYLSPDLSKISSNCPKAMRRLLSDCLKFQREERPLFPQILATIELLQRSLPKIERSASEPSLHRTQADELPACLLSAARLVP

[5] = molecular target: B-Raf (Homo sapiens, UniProt P15056); assay: Kinase activity assay, B-Raf; assay type: biochemical; details: read-out: activity toward kinase B-Raf, IC50
[6] = molecular target: Src (Homo sapiens, UniProt P12931); assay: Kinase activity assay, Src
[7] = molecular target: Kdr (Homo sapiens, UniProt P35968); assay: Kinase activity assay, Kdr

Measured: IC50

Sequence of C-Raf (P04049 whole entry): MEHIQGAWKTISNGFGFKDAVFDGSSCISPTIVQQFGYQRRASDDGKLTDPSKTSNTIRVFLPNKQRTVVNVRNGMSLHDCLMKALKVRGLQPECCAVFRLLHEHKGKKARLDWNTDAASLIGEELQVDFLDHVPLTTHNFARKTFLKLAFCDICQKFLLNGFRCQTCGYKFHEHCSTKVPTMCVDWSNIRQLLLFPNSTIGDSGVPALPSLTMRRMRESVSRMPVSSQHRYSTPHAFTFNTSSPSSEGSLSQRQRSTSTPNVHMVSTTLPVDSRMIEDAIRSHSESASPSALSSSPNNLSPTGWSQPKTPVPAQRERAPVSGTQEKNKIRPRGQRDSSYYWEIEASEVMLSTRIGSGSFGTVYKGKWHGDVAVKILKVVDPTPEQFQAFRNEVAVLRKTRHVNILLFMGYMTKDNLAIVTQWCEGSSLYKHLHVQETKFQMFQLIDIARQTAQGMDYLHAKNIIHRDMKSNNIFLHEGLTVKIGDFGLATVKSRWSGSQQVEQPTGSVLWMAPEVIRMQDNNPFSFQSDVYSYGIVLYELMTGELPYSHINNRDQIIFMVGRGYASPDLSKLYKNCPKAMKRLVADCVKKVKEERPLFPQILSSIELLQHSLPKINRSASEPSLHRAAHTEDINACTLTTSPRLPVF
Sequence of MAP4K4 (O95819 whole entry): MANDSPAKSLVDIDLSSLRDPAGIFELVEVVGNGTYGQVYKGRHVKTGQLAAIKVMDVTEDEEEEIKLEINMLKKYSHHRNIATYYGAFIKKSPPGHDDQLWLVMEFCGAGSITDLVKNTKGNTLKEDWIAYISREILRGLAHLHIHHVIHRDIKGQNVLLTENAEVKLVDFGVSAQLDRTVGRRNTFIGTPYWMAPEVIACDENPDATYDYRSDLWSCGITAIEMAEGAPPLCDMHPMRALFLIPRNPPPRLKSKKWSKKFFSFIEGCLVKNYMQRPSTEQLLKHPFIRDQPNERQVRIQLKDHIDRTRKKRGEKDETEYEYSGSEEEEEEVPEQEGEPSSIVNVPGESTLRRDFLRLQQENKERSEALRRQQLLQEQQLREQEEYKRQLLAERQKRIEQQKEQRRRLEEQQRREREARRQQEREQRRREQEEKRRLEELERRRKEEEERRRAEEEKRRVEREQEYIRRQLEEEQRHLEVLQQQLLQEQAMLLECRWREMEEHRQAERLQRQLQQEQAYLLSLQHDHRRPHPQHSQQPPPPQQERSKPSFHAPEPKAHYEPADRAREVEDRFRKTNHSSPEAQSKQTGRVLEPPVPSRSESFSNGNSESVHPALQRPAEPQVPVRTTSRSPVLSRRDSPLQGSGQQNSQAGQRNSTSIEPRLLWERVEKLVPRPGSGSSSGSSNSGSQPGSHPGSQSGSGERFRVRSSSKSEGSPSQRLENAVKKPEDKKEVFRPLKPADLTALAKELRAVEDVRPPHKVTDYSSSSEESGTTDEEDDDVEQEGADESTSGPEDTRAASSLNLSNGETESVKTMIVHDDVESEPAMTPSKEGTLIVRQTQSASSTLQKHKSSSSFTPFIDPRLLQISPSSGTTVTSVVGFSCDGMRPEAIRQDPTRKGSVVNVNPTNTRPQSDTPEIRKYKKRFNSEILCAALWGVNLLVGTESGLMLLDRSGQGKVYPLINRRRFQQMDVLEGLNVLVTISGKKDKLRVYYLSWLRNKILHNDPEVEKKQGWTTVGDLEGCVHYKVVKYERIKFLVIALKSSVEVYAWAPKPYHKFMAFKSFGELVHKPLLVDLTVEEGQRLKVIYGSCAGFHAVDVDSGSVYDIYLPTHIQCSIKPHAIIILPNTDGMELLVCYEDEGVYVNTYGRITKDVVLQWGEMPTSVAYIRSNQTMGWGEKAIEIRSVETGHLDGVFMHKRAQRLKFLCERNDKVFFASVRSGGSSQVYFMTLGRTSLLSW
Sequence of B-Raf (P15056 whole entry): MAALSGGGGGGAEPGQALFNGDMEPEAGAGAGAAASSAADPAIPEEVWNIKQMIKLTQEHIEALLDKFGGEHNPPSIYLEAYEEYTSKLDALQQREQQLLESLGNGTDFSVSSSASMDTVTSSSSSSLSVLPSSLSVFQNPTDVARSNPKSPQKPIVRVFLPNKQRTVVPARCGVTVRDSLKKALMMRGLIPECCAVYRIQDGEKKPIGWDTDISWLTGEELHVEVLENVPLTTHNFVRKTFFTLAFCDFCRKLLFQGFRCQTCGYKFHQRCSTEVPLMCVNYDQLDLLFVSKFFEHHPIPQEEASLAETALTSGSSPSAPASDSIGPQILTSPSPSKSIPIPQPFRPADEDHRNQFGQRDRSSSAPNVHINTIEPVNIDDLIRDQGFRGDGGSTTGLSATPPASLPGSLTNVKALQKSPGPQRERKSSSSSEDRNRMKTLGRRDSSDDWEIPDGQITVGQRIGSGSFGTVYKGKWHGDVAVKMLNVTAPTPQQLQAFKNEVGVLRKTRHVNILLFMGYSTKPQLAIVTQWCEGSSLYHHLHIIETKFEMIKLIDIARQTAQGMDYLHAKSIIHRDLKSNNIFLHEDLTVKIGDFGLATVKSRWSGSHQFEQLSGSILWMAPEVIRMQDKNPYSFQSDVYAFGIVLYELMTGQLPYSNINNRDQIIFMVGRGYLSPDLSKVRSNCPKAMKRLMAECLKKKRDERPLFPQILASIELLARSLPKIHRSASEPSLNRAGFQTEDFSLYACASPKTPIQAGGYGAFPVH
Sequence of Src (P12931 whole entry): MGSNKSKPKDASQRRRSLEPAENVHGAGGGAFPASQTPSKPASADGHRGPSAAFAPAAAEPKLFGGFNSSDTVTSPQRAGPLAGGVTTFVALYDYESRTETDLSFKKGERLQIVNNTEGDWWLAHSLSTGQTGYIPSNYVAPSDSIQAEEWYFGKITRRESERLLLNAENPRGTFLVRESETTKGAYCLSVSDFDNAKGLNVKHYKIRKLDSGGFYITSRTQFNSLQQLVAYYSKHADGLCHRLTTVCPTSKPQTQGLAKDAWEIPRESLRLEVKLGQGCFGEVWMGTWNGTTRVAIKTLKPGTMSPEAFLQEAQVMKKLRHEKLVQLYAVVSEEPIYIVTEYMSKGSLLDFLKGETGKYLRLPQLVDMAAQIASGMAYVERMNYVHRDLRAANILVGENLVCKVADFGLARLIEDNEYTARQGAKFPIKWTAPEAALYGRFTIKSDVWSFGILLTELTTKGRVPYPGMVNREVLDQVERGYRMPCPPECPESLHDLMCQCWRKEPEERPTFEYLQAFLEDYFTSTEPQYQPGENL
Sequence of B-Raf V600E (P15056 whole entry V600E): as the sequence (P15056 whole entry) above, with V600E counted along it
Sequence of Kdr (P35968 20-1356): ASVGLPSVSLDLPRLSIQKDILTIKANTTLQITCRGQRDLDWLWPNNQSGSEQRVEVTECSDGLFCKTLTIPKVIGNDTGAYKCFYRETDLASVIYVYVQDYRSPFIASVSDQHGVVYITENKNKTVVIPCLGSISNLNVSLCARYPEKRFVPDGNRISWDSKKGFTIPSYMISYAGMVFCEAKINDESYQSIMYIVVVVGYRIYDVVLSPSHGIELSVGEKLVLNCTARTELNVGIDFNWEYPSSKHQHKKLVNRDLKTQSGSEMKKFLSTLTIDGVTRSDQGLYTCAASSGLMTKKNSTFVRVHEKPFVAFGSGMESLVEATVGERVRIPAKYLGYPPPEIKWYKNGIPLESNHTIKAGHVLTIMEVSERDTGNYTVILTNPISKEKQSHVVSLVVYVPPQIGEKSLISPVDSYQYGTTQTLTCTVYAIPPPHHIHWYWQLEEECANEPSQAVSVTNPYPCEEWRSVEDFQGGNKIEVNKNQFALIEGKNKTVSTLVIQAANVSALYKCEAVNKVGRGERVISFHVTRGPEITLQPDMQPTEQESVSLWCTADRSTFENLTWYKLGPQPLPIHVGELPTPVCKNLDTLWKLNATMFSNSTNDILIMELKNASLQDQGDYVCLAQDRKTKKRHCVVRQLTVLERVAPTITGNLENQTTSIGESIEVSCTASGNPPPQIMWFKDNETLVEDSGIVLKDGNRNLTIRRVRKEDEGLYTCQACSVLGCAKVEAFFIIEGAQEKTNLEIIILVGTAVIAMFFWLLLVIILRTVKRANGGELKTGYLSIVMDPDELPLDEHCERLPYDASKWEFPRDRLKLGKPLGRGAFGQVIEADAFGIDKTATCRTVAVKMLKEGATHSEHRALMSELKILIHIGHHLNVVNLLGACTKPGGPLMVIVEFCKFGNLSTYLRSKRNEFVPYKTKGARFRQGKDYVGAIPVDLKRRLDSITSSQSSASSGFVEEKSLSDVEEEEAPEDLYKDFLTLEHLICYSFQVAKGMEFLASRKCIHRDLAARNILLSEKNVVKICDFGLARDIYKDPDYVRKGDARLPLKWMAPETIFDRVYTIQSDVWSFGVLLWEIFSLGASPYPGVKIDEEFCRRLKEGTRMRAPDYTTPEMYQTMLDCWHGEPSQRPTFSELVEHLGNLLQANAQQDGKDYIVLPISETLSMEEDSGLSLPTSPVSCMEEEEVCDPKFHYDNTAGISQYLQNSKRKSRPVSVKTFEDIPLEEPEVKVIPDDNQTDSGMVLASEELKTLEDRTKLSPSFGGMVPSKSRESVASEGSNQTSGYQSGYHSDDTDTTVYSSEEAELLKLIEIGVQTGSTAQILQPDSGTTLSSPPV

N#Cc1cnc2[nH]cc(C(=O)c3c(F)ccc(NS(=O)(=O)c4ccccn4)c3F)c2c1 [P-2063, Pyridine-2-sulfonic acid [3-(5-cyano-1H-pyrrolo[2,3-b]pyridine-3-carbonyl)-2,4-difluoro-phenyl]-amide]
not listed: [7]
≤ 10 µM: all other assays above

Cc1cnc2[nH]cc(C(=O)c3c(F)ccc(NS(=O)(=O)c4cccnc4)c3F)c2c1 [P-2069, Pyridine-3-sulfonic acid [2,4-difluoro-3-(5-methyl-1H-pyrrolo[2,3-b]pyridine-3-carbonyl)-phenyl]-amide]
not listed: [7]
≤ 10 µM: all other assays above

O=C(c1c(F)ccc(NS(=O)(=O)c2ccccn2)c1F)c1c[nH]c2nccc(Cl)c12 [P-2075, Pyridine-2-sulfonic acid [3-(4-chloro-1H-pyrrolo[2,3-b]pyridine-3-carbonyl)-2,4-difluoro-phenyl]-amide]
≤ 10 µM: all assays above

COc1ccnc2[nH]cc(C(=O)c3c(F)ccc(NS(=O)(=O)c4ccccn4)c3F)c12 [P-2076, Pyridine-2-sulfonic acid [2,4-difluoro-3-(4-methoxy-1H-pyrrolo[2,3-b]pyridine-3-carbonyl)-phenyl]-amide]
not listed: [7]
≤ 10 µM: all other assays above

CCS(=O)(=O)Nc1ccc(F)c(C(=O)c2c[nH]c3nccc(Cl)c23)c1F [P-2276, Ethanesulfonic acid [3-(4-chloro-1H-pyrrolo[2,3-b]pyridine-3-carbonyl)-2,4-difluoro-phenyl]-amide]
≤ 10 µM: all assays above

CCS(=O)(=O)Nc1ccc(F)c(C(=O)c2c[nH]c3ncc(C)cc23)c1F [P-2277, Ethanesulfonic acid [2,4-difluoro-3-(5-methyl-1H-pyrrolo[2,3-b]pyridine-3-carbonyl)-phenyl]-amide]
≤ 10 µM: all assays above

Cc1cnc2[nH]cc(C(=O)c3c(F)ccc(NS(=O)(=O)CC(F)(F)F)c3F)c2c1 [P-2337, 2,2,2-Trifluoro-ethanesulfonic acid [2,4-difluoro-3-(5-methyl-1H-pyrrolo[2,3-b]pyridine-3-carbonyl)-phenyl]-amide]
not listed: [5]
≤ 10 µM: all other assays above

O=C(c1c(F)ccc(NS(=O)(=O)C(F)(F)F)c1F)c1c[nH]c2ncc(Cl)cc12 [P-2346, N-[3-(5-Chloro-1H-pyrrolo[2,3-b]pyridine-3-carbonyl)-2,4-difluoro-phenyl]-C,C,C-trifluoro-methanesulfonamide]
≤ 10 µM: all assays above

CCCS(=O)(=O)Nc1cccc(C(=O)c2c[nH]c3ncc(-c4cnc(N(C)C)nc4)cc23)c1F [P-2408, Propane-1-sulfonic acid {3-[5-(2-dimethylamino-pyrimidin-5-yl)-1H-pyrrolo[2,3-b]pyridine-3-carbonyl]-2-fluoro-phenyl}-amide]
≤ 10 µM: all assays above
